Assay results from patent publication EP4722207A1, “OXOISOINDOLINYL-SUBSTITUTED TETRAHYDROPYRIMIDINEDIONE DERIVATIVE AND USE THEREOF” (Gluetacs Therapeutics (Shanghai) Co., Ltd., priority 2023, dated 2024).

Legend:
Type in all cases: cell-based
WEE1 = target: T1, WEE1 (Homo sapiens, UniProt P30291+Q96SW2); experiment: Western-blot assay, substrate protein degradation in hPBMCs: WEE1; settings: for substrate protein remaining % WEE1: 24 hours of compound treatment, 50 nM and 500 nM; for WEE1 substrate protein remaining %: compounds at 50 nM and 500 nM, 24 hours
T1 construct: effects of the compounds of the present disclosure on the expression of target proteins in cells; endogenous in cells; host or cells: human PBMCs (hPBMCs)
T1 sequence (P30291 whole entry): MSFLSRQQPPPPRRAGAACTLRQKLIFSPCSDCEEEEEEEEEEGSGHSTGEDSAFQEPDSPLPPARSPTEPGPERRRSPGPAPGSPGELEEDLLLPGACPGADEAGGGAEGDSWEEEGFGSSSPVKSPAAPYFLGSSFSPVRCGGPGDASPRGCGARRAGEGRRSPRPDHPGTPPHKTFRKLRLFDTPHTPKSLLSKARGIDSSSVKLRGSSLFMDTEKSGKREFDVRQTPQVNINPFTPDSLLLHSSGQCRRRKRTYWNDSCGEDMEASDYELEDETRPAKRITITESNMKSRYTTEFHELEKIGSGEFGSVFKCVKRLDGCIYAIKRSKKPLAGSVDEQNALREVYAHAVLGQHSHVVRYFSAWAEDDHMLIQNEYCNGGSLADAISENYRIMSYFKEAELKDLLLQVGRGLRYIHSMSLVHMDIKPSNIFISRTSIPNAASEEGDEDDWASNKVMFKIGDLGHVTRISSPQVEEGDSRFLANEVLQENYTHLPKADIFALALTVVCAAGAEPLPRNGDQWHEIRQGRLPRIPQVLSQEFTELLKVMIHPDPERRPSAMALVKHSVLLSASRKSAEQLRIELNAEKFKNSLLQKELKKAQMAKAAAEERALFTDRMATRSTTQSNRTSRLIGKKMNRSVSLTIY
T1 sequence (Q96SW2 whole entry): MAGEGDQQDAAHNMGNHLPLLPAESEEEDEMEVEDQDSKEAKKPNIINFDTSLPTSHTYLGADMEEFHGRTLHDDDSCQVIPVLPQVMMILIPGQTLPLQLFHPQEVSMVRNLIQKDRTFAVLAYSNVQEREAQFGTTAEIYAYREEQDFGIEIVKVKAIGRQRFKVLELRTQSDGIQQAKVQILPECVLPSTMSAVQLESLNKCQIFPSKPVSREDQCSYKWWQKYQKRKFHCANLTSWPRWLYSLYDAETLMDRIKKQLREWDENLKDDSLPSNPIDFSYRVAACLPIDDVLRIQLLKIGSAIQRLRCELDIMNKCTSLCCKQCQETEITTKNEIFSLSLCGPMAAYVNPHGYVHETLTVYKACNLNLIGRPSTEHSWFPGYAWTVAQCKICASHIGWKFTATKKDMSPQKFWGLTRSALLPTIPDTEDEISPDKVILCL
T1 sequence (Q16531 whole entry partner): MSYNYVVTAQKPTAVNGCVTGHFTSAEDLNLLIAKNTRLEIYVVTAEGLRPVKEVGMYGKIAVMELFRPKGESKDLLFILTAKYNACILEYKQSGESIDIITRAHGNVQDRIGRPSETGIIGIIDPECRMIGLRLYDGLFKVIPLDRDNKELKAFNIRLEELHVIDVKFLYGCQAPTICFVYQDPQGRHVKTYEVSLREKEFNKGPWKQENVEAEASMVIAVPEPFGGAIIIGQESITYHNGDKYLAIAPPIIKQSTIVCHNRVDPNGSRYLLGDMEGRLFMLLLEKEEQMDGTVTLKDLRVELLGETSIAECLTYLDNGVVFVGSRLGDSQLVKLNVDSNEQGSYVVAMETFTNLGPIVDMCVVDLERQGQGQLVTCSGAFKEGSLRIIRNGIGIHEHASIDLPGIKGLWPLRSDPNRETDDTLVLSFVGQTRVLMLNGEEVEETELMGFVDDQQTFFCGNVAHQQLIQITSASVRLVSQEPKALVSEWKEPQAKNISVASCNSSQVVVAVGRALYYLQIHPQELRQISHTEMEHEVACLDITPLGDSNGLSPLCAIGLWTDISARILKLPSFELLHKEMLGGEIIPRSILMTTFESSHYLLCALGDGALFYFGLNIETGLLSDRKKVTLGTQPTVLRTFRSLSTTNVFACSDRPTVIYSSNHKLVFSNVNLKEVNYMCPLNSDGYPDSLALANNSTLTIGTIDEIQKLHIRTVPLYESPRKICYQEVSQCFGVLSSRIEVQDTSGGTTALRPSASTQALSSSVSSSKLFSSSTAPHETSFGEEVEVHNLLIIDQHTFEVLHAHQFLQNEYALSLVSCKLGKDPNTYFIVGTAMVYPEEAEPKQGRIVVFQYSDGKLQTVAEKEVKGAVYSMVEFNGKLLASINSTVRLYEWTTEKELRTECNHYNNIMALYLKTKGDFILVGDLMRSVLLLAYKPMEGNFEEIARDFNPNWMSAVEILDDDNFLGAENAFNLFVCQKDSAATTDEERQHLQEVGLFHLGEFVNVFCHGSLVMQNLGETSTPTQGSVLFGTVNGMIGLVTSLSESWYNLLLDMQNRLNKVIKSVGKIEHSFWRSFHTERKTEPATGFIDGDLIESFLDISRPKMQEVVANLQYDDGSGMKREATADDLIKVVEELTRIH

IKZF1 = target: T2, IKZF1 (Homo sapiens, UniProt Q13422+Q96SW2); experiment: Western-blot assay, substrate protein degradation in hPBMCs: IKZF1; settings: for substrate protein remaining % IKZF1: 24 hours of compound treatment, 50 nM and 500 nM; for IKZF1 substrate protein remaining %: compounds at 50 nM and 500 nM, 24 hours
T2 construct: effects of the compounds of the present disclosure on the expression of target proteins in cells; endogenous in cells; host or cells: human PBMCs (hPBMCs)

IKZF2 = target: T3, IKZF2 (Homo sapiens, UniProt Q96SW2+Q9UKS7); experiment: Western-blot assay, substrate protein degradation in hPBMCs: IKZF2; settings: for substrate protein remaining % IKZF2: 24 hours of compound treatment, 50 nM and 500 nM; for IKZF2 substrate protein remaining %: compounds at 50 nM and 500 nM, 24 hours
T3 construct: effects of the compounds of the present disclosure on the expression of target proteins in cells; endogenous in cells; host or cells: human PBMCs (hPBMCs)
T3 sequence (Q9UKS7 whole entry): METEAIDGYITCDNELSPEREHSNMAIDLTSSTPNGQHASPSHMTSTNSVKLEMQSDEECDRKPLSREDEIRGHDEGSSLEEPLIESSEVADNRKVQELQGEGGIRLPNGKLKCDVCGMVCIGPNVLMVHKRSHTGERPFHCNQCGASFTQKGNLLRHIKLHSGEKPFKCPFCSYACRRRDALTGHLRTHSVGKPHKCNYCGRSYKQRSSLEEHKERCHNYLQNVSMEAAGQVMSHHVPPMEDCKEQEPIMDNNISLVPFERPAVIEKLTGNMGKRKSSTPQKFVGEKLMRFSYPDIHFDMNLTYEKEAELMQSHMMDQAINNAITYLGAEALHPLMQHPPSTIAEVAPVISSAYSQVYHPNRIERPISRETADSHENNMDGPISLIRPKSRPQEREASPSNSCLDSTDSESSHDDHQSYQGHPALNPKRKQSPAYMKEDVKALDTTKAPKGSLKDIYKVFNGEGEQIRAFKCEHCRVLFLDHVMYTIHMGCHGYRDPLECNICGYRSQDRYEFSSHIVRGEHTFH
T3 sequence (Q96SW2 whole entry): as the sequence (Q96SW2 whole entry) above
T3 sequence (Q16531 whole entry partner): as the sequence (Q16531 whole entry partner) above

IKZF3 = target: T4, IKZF3 (Homo sapiens, UniProt Q96SW2+Q9UKT9); experiment: Western-blot assay, substrate protein degradation in hPBMCs: IKZF3; settings: for substrate protein remaining % IKZF3: 24 hours of compound treatment, 50 nM and 500 nM; for IKZF3 substrate protein remaining %: compounds at 50 nM and 500 nM, 24 hours
T4 construct: effects of the compounds of the present disclosure on the expression of target proteins in cells; endogenous in cells; host or cells: human PBMCs (hPBMCs)
T4 sequence (Q9UKT9 whole entry): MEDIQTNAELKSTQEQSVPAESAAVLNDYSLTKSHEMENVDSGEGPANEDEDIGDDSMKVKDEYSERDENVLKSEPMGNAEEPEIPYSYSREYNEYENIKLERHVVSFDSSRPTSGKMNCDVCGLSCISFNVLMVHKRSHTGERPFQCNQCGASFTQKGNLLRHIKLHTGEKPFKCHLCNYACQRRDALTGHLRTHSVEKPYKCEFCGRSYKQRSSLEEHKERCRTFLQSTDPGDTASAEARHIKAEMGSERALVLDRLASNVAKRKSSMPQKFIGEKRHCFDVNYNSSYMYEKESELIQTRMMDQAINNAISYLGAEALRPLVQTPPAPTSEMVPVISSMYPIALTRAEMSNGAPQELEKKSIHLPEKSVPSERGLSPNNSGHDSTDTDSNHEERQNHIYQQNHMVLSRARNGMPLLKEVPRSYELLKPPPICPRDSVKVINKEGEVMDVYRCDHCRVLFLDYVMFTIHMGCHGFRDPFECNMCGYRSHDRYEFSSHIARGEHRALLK
T4 sequence (Q96SW2 whole entry): as the sequence (Q96SW2 whole entry) above
T4 sequence (Q16531 whole entry partner): as the sequence (Q16531 whole entry partner) above

CK1α = target: T5, CK1α (Homo sapiens, UniProt P48729+Q96SW2); experiment: Western-blot assay, substrate protein degradation in hPBMCs: CK1α; settings: for substrate protein remaining % CK1α: 24 hours of compound treatment, 50 nM and 500 nM; for CK1α substrate protein remaining %: compounds at 50 nM and 500 nM, 24 hours
T5 construct: effects of the compounds of the present disclosure on the expression of target proteins in cells; endogenous in cells; host or cells: human PBMCs (hPBMCs)
T5 sequence (P48729 whole entry): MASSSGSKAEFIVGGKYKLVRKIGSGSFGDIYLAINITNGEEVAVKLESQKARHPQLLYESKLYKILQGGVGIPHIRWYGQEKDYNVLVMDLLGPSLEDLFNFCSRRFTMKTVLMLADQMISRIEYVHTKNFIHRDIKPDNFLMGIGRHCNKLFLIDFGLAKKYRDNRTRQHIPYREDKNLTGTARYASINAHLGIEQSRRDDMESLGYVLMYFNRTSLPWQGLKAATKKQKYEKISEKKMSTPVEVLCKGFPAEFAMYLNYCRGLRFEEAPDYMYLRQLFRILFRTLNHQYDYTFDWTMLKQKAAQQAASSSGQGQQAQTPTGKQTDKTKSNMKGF
T5 sequence (Q96SW2 whole entry): as the sequence (Q96SW2 whole entry) above
T5 sequence (Q16531 whole entry partner): as the sequence (Q16531 whole entry partner) above

GSPT1 = target: T6, GSPT1 (Homo sapiens, UniProt P15170+Q96SW2); experiment: Western-blot assay, substrate protein degradation in hPBMCs: GSPT1; settings: for substrate protein remaining % GSPT1: 24 hours of compound treatment, 50 nM and 500 nM; for GSPT1 substrate protein remaining %: compounds at 50 nM and 500 nM, 24 hours
T6 construct: effects of the compounds of the present disclosure on the expression of target proteins in cells; endogenous in cells; host or cells: human PBMCs (hPBMCs)
T6 sequence (P15170 whole entry): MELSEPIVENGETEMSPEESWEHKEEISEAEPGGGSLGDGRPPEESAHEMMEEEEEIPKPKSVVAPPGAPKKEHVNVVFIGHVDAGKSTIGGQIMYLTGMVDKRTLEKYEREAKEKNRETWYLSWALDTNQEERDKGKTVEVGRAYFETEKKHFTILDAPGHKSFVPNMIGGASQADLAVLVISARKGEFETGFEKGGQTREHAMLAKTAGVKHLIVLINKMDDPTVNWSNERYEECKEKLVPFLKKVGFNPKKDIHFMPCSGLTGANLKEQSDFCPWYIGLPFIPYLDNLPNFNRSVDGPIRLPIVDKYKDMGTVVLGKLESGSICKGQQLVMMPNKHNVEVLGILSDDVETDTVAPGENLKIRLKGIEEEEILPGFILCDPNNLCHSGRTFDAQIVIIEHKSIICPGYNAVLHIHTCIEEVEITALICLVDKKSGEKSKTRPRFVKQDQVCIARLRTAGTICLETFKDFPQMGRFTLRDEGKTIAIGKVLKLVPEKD
T6 sequence (Q96SW2 whole entry): as the sequence (Q96SW2 whole entry) above
T6 sequence (Q16531 whole entry partner): as the sequence (Q16531 whole entry partner) above

## Cc1ccsc1C1CCN(Cc2ccc3c(c2)CN(N2CCC(=O)NC2=O)C3=O)CC1 [GT-07305, 1-(5-((4-(3-methylthiophen-2-yl)piperidin-1-yl)methyl)-1-oxoisoindolin-2-yl)dihydropyrimidine-2,4(1H,3H)-dione]
WEE1
  substrate protein remaining % WEE1: B (80%< substrate protein remaining %≤ 100%)
IKZF1
  substrate protein remaining % IKZF1: B (80%< substrate protein remaining %≤ 100%)
IKZF2
  substrate protein remaining % IKZF2: A (0% ≤ substrate protein remaining % ≤ 80%)
IKZF3
  substrate protein remaining % IKZF3: A (0% ≤ substrate protein remaining % ≤ 80%)
CK1α
  substrate protein remaining % CK1α: B (80%< substrate protein remaining %≤ 100%)
GSPT1
  substrate protein remaining % GSPT1: A (0% ≤ substrate protein remaining % ≤ 80%)

## O=C1CCN(N2C(=O)c3ccc(CN4CC(c5ccnc6cc(F)ccc56)C4)cc3C2=O)C(=O)N1 [GT-07718, 2-(2,4-dioxotetrahydropyrimidin-1(2H)-yl)-5-((3-(7-fluoroquinolin-4-yl)azetidin-1-yl)methyl)isoindoline-1,3-dione]
WEE1
  substrate protein remaining % WEE1: B (80%< substrate protein remaining %≤ 100%)
IKZF1
  substrate protein remaining % IKZF1: B (80%< substrate protein remaining %≤ 100%)
IKZF2
  substrate protein remaining % IKZF2: B (80%< substrate protein remaining %≤ 100%)
IKZF3
  substrate protein remaining % IKZF3: A (0% ≤ substrate protein remaining % ≤ 80%)
CK1α
  substrate protein remaining % CK1α: A (0% ≤ substrate protein remaining % ≤ 80%)
GSPT1
  substrate protein remaining % GSPT1: A (0% ≤ substrate protein remaining % ≤ 80%)

## O=C1CCN(N2Cc3cc(CN4CCN(c5nsc6cc(F)ccc56)CC4)ccc3C2=O)C(=O)N1 [GT-07500, 1-(5-((4-(6-fluorobenzo[d]isothiazol-3-yl)piperazin-1-yl)methyl)-1-oxoisoindolin-2-yl)dihydropyrimidine-2,4(1H,3H)-dione]
WEE1
  substrate protein remaining % WEE1: A (0% ≤ substrate protein remaining % ≤ 80%)
IKZF1
  substrate protein remaining % IKZF1: A (0% ≤ substrate protein remaining % ≤ 80%)
IKZF2
  substrate protein remaining % IKZF2: B (80%< substrate protein remaining %≤ 100%)
IKZF3
  substrate protein remaining % IKZF3: B (80%< substrate protein remaining %≤ 100%)
CK1α
  substrate protein remaining % CK1α: A (0% ≤ substrate protein remaining % ≤ 80%)
GSPT1
  substrate protein remaining % GSPT1: A (0% ≤ substrate protein remaining % ≤ 80%)

## O=C1CCN(N2C(=O)c3ccc(CN4CCN(c5noc6ccncc56)CC4)cc3C2=O)C(=O)N1 [GT-07525, 2-(2,4-dioxotetrahydropyrimidin-1(2H)-yl)-5-((4-(isoxazolo[4,5-c]pyridin-3-yl)piperazin-1-yl)methyl)isoindoline-1,3-dione]
WEE1
  substrate protein remaining % WEE1: B (80%< substrate protein remaining %≤ 100%)
IKZF1
  substrate protein remaining % IKZF1: B (80%< substrate protein remaining %≤ 100%)
IKZF2
  substrate protein remaining % IKZF2: B (80%< substrate protein remaining %≤ 100%)
IKZF3
  substrate protein remaining % IKZF3: B (80%< substrate protein remaining %≤ 100%)
CK1α
  substrate protein remaining % CK1α: A (0% ≤ substrate protein remaining % ≤ 80%)
GSPT1
  substrate protein remaining % GSPT1: A (0% ≤ substrate protein remaining % ≤ 80%)

## O=C1CCN(N2Cc3cc(CN4CCC(c5ccon5)CC4)ccc3C2=O)C(=O)N1 [GT-07495, 1-(5-((4-(isoxazol-3-yl)piperidin-1-yl)methyl)-1-oxoisoindolin-2-yl)dihydropyrimidine-2,4(1H,3H)-dione]
WEE1
  substrate protein remaining % WEE1: B (80%< substrate protein remaining %≤ 100%)
IKZF1
  substrate protein remaining % IKZF1: B (80%< substrate protein remaining %≤ 100%)
IKZF2
  substrate protein remaining % IKZF2: B (80%< substrate protein remaining %≤ 100%)
IKZF3
  substrate protein remaining % IKZF3: B (80%< substrate protein remaining %≤ 100%)
CK1α
  substrate protein remaining % CK1α: A (0% ≤ substrate protein remaining % ≤ 80%)
GSPT1
  substrate protein remaining % GSPT1: A (0% ≤ substrate protein remaining % ≤ 80%)

## O=C1CCN(N2Cc3cc(CN4CCN(c5cccnc5)CC4)ccc3C2=O)C(=O)N1 [GT-05434, 1-(1-oxo-5-((4-(pyridin-3-yl)piperazin-1-yl)methyl)isoindolin-2-yl)dihydropyrimidine-2,4(1H,3H)-dione]
WEE1
  substrate protein remaining % WEE1: A (0% ≤ substrate protein remaining % ≤ 80%)
  WEE1 substrate protein remaining %: A ("A" is defined as 0% ≤ substrate protein remaining % ≤ 80%)
IKZF1
  substrate protein remaining % IKZF1: B (80%< substrate protein remaining %≤ 100%)
  IKZF1 substrate protein remaining %: B ("B" is defined as 80%< substrate protein remaining %≤ 100%)
IKZF2
  substrate protein remaining % IKZF2: A (0% ≤ substrate protein remaining % ≤ 80%)
  IKZF2 substrate protein remaining %: B ("B" is defined as 80%< substrate protein remaining %≤ 100%)
IKZF3
  substrate protein remaining % IKZF3: B (80%< substrate protein remaining %≤ 100%)
  IKZF3 substrate protein remaining %: B ("B" is defined as 80%< substrate protein remaining %≤ 100%)
CK1α
  substrate protein remaining % CK1α: A (0% ≤ substrate protein remaining % ≤ 80%)
  CK1α substrate protein remaining %: B ("B" is defined as 80%< substrate protein remaining %≤ 100%)
GSPT1
  substrate protein remaining % GSPT1: A (0% ≤ substrate protein remaining % ≤ 80%)
  GSPT1 substrate protein remaining %: A ("A" is defined as 0% ≤ substrate protein remaining % ≤ 80%)

## CC1(C)CCC(CN2CC3CC2CN3Cc2ccc3c(c2)C(=O)N(N2CCC(=O)NC2=O)C3=O)=C(c2ccc(Cl)cc2)C1 (stereo not drawn) [GT-07334, 5-((5-((4'-chloro-5,5-dimethyl-3,4,5,6-tetrahydro-[1,1'-biphenyl]-2-yl)methyl)-2,5-diazabicyclo[2.2.1]heptan-2-yl)methyl)-2-(2,4-dioxotetrahydropyrimidin-1(2H)-yl)isoindoline-1,3-dione]
WEE1
  substrate protein remaining % WEE1: A (0% ≤ substrate protein remaining % ≤ 80%)
IKZF1
  substrate protein remaining % IKZF1: B (80%< substrate protein remaining %≤ 100%)
IKZF2
  substrate protein remaining % IKZF2: B (80%< substrate protein remaining %≤ 100%)
IKZF3
  substrate protein remaining % IKZF3: B (80%< substrate protein remaining %≤ 100%)
CK1α
  substrate protein remaining % CK1α: A (0% ≤ substrate protein remaining % ≤ 80%)
GSPT1
  substrate protein remaining % GSPT1: B (80%< substrate protein remaining %≤ 100%)

## O=C1CCN(N2C(=O)c3ccc(CN4CCN(c5cccnc5)CC4)cc3C2=O)C(=O)N1 [GT-06971, 2-(2,4-dioxotetrahydropyrimidin-1(2H)-yl)-5-((4-(pyridin-3-yl)piperazin-1-yl)methyl)isoindoline-1,3-dione]
WEE1
  WEE1 substrate protein remaining %: A ("A" is defined as 0% ≤ substrate protein remaining % ≤ 80%)
IKZF1
  IKZF1 substrate protein remaining %: B ("B" is defined as 80%< substrate protein remaining %≤ 100%)
IKZF2
  IKZF2 substrate protein remaining %: A ("A" is defined as 0% ≤ substrate protein remaining % ≤ 80%)
IKZF3
  IKZF3 substrate protein remaining %: B ("B" is defined as 80%< substrate protein remaining %≤ 100%)
CK1α
  CK1α substrate protein remaining %: B ("B" is defined as 80%< substrate protein remaining %≤ 100%)
GSPT1
  GSPT1 substrate protein remaining %: B ("B" is defined as 80%< substrate protein remaining %≤ 100%)

## O=C1CCN(N2Cc3cc(CN4CCN(c5ccnc(Cl)c5Cl)CC4)ccc3C2=O)C(=O)N1 [GT-07169, 1-(5-((4-(2,3-dichloropyridin-4-yl)piperazin-1-yl)methyl)-1-oxoisoindolin-2-yl)dihydropyrimidine-2,4(1H,3H)-dione]
WEE1
  WEE1 substrate protein remaining %: A ("A" is defined as 0% ≤ substrate protein remaining % ≤ 80%)
IKZF1
  IKZF1 substrate protein remaining %: B ("B" is defined as 80%< substrate protein remaining %≤ 100%)
IKZF2
  IKZF2 substrate protein remaining %: B ("B" is defined as 80%< substrate protein remaining %≤ 100%)
IKZF3
  IKZF3 substrate protein remaining %: B ("B" is defined as 80%< substrate protein remaining %≤ 100%)
CK1α
  CK1α substrate protein remaining %: B ("B" is defined as 80%< substrate protein remaining %≤ 100%)
GSPT1
  GSPT1 substrate protein remaining %: B ("B" is defined as 80%< substrate protein remaining %≤ 100%)

## O=C1CCN(N2C(=O)c3ccc(CN4CC=C(c5ccnc(F)c5F)CC4)cc3C2=O)C(=O)N1 [GT-07494, 5-((2',3'-difluoro-3,6-dihydro-[4,4'-bipyridin]-1(2H)-yl)methyl)-2-(2,4-dioxotetrahydropyrimidin-1(2H)-yl)isoindoline-1,3-dione]
WEE1
  substrate protein remaining % WEE1: A (0% ≤ substrate protein remaining % ≤ 80%)
IKZF1
  substrate protein remaining % IKZF1: B (80%< substrate protein remaining %≤ 100%)
IKZF2
  substrate protein remaining % IKZF2: B (80%< substrate protein remaining %≤ 100%)
IKZF3
  substrate protein remaining % IKZF3: B (80%< substrate protein remaining %≤ 100%)
CK1α
  substrate protein remaining % CK1α: A (0% ≤ substrate protein remaining % ≤ 80%)
GSPT1
  substrate protein remaining % GSPT1: B (80%< substrate protein remaining %≤ 100%)

## O=C1CCN(N2Cc3cc(CN4CCN(c5c(Cl)ccnc5Cl)CC4)ccc3C2=O)C(=O)N1 [GT-06974, 1-(5-((4-(2,4-dichloropyridin-3-yl)piperazin-1-yl)methyl)-1-oxoisoindolin-2-yl)dihydropyrimidine-2,4(1H,3H)-dione]
WEE1
  WEE1 substrate protein remaining %: A ("A" is defined as 0% ≤ substrate protein remaining % ≤ 80%)
IKZF1
  IKZF1 substrate protein remaining %: A ("A" is defined as 0% ≤ substrate protein remaining % ≤ 80%)
IKZF2
  IKZF2 substrate protein remaining %: B ("B" is defined as 80%< substrate protein remaining %≤ 100%)
IKZF3
  IKZF3 substrate protein remaining %: A ("A" is defined as 0% ≤ substrate protein remaining % ≤ 80%)
CK1α
  CK1α substrate protein remaining %: B ("B" is defined as 80%< substrate protein remaining %≤ 100%)
GSPT1
  GSPT1 substrate protein remaining %: B ("B" is defined as 80%< substrate protein remaining %≤ 100%)
